# Reference: article PMC7026418, “The kinase polypharmacology landscape of clinical PARP inhibitors” (Scientific Reports, 2020)
# Like-named read-outs stand apart in the source and are kept apart here.
# Key:
# Assay in all cases: biochemical
# Set-up in all cases: DiscoveRx KINOMEscan active site-directed competition binding; percent of control kinase bound to immobilised ligand
# ADCK3 = target: T1, ADCK3 (Homo sapiens, UniProt Q8NI60)
# T1 construct: gene COQ8A
# CDKL5 = target: T2, CDKL5 (Homo sapiens, UniProt O76039)
# T2 sequence (O76039 1-960): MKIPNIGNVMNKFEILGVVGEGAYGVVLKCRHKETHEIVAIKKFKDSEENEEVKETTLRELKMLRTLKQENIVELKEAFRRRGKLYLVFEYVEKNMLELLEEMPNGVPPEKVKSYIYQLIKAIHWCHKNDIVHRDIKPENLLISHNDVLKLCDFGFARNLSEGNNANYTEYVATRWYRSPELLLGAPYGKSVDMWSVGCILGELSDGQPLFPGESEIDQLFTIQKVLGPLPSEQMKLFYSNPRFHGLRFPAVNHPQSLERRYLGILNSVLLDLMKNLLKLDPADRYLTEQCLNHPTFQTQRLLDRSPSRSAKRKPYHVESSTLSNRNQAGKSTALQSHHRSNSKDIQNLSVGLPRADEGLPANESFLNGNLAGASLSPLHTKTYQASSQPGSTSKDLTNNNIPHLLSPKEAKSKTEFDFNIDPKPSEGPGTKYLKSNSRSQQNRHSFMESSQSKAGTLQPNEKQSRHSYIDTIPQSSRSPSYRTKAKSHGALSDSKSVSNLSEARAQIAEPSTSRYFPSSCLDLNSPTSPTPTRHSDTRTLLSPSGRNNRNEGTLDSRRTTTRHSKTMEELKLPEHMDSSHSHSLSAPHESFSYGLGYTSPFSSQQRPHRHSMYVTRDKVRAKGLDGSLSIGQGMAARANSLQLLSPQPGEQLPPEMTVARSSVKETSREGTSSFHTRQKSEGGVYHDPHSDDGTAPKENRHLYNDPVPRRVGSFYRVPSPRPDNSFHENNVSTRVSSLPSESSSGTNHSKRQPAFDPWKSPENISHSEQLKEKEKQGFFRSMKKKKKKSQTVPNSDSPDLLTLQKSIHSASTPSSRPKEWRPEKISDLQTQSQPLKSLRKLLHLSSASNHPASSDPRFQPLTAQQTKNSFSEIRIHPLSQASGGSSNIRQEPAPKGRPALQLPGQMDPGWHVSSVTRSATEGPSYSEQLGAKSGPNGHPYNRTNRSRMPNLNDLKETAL
# ABL1-nonphosphorylated = target: T3, ABL1-nonphosphorylated (Homo sapiens, UniProt P00519)
# T3 construct: nonphosphorylated
# T3 sequence (P00519 whole entry): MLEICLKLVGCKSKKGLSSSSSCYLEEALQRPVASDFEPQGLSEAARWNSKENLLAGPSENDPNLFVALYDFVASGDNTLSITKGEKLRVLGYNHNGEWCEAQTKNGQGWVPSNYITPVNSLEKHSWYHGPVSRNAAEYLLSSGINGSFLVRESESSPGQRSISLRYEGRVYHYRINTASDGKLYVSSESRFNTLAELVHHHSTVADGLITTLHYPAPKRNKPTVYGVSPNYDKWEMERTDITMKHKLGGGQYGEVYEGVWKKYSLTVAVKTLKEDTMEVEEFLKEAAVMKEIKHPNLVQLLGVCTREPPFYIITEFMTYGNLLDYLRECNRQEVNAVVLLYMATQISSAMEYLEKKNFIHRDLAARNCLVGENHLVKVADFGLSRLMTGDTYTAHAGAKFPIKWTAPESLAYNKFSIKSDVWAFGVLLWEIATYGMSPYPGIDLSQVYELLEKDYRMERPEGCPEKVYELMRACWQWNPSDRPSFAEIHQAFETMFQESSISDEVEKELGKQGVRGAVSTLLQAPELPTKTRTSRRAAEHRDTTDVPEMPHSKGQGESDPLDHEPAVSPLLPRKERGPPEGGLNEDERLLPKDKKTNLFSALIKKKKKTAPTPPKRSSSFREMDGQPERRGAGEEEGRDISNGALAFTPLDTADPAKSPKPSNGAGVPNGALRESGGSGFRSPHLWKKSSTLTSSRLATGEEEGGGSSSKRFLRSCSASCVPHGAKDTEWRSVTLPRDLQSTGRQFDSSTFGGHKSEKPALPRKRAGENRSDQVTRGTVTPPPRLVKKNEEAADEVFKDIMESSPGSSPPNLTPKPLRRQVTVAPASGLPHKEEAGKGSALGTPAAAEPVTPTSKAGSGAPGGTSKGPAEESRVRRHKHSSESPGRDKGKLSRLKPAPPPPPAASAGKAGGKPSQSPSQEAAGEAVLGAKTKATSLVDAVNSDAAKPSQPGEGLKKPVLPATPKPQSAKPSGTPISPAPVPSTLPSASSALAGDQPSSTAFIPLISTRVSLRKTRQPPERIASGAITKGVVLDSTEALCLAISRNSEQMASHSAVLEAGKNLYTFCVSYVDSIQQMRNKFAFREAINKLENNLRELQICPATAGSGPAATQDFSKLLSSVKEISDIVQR
# GCN2(Kin.Dom.2,S808G) = target: T4, GCN2(Kin.Dom.2,S808G) (Homo sapiens, UniProt Q9P2K8, S808G)
# T4 construct: gene EIF2AK4; Kin.Dom.2
# T4 sequence (Q9P2K8 whole entry S808G): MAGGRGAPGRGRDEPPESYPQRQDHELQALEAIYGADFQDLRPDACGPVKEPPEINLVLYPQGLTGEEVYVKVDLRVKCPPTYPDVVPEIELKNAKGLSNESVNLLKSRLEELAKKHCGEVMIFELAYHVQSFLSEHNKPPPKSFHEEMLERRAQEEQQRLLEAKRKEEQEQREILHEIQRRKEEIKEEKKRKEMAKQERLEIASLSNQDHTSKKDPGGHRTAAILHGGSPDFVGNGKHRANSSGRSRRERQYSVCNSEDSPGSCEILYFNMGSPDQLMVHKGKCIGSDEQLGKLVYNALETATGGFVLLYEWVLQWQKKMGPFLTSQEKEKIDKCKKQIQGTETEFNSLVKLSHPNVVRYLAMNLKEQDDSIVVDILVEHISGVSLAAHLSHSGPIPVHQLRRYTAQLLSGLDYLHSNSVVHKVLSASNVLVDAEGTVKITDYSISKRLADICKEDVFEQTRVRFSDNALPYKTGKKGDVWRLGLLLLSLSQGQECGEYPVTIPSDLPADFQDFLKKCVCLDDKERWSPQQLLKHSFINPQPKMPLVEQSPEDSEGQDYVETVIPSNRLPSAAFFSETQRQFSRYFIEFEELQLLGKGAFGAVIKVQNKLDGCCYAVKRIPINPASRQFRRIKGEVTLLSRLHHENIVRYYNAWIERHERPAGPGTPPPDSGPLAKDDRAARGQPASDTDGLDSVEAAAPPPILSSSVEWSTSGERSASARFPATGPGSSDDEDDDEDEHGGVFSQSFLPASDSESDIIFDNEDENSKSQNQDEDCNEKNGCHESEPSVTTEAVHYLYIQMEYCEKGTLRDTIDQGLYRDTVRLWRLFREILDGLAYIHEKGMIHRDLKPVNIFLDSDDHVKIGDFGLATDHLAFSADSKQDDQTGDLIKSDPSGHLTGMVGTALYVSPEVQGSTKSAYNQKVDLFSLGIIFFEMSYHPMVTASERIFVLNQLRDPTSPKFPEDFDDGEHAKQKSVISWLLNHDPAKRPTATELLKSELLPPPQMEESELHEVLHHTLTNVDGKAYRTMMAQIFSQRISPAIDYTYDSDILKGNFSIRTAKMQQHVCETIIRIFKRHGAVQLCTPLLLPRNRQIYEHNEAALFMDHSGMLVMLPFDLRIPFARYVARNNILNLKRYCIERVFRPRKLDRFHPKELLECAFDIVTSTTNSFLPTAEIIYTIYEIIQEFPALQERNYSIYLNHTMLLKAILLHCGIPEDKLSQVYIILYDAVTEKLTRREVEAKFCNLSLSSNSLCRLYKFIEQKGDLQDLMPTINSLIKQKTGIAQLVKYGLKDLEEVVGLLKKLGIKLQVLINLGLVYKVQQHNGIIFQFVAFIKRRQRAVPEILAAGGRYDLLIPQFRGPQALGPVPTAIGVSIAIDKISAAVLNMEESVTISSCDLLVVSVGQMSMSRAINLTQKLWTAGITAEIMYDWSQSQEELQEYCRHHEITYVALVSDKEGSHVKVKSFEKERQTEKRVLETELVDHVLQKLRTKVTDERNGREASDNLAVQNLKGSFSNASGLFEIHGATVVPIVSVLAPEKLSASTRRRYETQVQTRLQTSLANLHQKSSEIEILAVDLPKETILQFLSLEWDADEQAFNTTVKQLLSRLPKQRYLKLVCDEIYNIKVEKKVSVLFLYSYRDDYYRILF
# MAK = target: T5, MAK (Homo sapiens, UniProt P20794)
# T5 sequence (P20794 1-623): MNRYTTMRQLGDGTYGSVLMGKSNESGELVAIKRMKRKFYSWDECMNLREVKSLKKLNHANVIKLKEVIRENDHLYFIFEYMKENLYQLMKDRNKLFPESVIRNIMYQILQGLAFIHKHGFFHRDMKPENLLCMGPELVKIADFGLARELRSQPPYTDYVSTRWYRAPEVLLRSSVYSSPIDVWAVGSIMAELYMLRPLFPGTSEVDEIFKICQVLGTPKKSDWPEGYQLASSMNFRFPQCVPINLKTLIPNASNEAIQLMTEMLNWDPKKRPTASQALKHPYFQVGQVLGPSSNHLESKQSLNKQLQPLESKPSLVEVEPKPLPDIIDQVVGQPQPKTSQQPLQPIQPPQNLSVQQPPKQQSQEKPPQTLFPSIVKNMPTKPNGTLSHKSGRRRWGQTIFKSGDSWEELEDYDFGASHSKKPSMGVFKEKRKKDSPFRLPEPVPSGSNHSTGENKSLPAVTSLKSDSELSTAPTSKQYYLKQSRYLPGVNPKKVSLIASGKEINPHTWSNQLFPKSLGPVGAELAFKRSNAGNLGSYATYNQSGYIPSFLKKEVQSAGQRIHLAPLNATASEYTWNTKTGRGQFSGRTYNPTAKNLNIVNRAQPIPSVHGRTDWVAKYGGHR
# [1] = read-out: Niraparib (MK-4827) / %Ctrl @ 10000nM
# [2] = read-out: Olaparib / %Ctrl @ 10000nM
# [3] = read-out: Rucaparib / %Ctrl @ 10000nM, binding competition, % of control
# [4] = read-out: Talazoparib (BMN 673) / %Ctrl @ 10000nM
# T1 sequence (Q8NI60 whole entry): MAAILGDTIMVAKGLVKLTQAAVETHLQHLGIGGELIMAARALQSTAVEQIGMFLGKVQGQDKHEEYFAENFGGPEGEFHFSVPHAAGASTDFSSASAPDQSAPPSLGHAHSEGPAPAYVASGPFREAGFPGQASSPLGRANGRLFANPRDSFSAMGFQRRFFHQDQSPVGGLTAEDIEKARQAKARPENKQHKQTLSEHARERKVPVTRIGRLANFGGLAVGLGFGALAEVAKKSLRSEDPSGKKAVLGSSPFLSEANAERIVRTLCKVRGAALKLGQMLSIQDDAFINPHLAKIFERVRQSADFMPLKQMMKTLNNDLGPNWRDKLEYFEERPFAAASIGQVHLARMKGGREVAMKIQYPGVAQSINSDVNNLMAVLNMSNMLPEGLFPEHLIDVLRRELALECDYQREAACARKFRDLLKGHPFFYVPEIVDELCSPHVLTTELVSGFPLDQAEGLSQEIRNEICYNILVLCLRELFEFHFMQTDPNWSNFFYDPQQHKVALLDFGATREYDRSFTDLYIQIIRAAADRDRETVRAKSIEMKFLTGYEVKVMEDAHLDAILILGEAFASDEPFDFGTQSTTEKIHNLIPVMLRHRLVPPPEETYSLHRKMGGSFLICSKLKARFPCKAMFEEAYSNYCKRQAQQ
compound,measurement,setting,value
NC(=O)c1cccc2cn(-c3ccc([C@@H]4CCCNC4)cc3)nc12 [Niraparib],percent of control binding at 10 µM,ADCK3; [1],57%
same,percent of control binding at 10 µM,CDKL5; [1],86%
same,percent of control binding at 10 µM,ABL1-nonphosphorylated; [1],94%
same,percent of control binding at 10 µM,"GCN2(Kin.Dom.2,S808G); [1]",83%
same,percent of control binding at 10 µM,MAK; [1],56%
O=C(c1cc(Cc2n[nH]c(=O)c3ccccc23)ccc1F)N1CCN(C(=O)C2CC2)CC1 [Olaparib],percent of control binding at 10 µM,ADCK3; [2],99%
same,percent of control binding at 10 µM,CDKL5; [2],98%
same,percent of control binding at 10 µM,ABL1-nonphosphorylated; [2],87%
same,percent of control binding at 10 µM,"GCN2(Kin.Dom.2,S808G); [2]",93%
same,percent of control binding at 10 µM,MAK; [2],77%
CNCc1ccc(-c2[nH]c3cc(F)cc4c3c2CCNC4=O)cc1 [Rucaparib],percent of control binding at 10 µM,ADCK3; [3],69%
same,percent of control binding at 10 µM,CDKL5; [3],30%
same,percent of control binding at 10 µM,ABL1-nonphosphorylated; [3],82%
same,percent of control binding at 10 µM,"GCN2(Kin.Dom.2,S808G); [3]",55%
same,percent of control binding at 10 µM,MAK; [3],81%
Cn1ncnc1[C@H]1c2n[nH]c(=O)c3cc(F)cc(c23)N[C@@H]1c1ccc(F)cc1 [Talazoparib],percent of control binding at 10 µM,ADCK3; [4],100%
same,percent of control binding at 10 µM,CDKL5; [4],100%
same,percent of control binding at 10 µM,ABL1-nonphosphorylated; [4],100%
same,percent of control binding at 10 µM,"GCN2(Kin.Dom.2,S808G); [4]",100%
same,percent of control binding at 10 µM,MAK; [4],93%
